# According to US12116343B2, “Inhibitors of APOL1 and methods of using same” (Vertex Pharmaceuticals Incorporated, priority 2020, dated 2024):
# Target: T1, G1 APOL1 (Homo sapiens, UniProt O14791, I384M/S342G)
# T1 construct: expressed in transfected cells
# T1 sequence (O14791 28-398 S342G/I384M): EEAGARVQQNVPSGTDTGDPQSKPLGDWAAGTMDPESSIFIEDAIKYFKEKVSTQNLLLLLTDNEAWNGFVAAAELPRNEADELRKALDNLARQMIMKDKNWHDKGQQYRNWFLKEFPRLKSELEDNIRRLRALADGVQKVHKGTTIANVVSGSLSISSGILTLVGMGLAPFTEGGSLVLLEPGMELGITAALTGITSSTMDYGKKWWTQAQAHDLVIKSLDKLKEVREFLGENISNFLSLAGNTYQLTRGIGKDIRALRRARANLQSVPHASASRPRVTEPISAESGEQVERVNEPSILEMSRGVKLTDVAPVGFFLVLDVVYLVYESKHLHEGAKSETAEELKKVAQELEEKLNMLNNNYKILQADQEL
# Assay: Acute APOL1 Thallium Assay with inducible stable clones of HEK 293 cells
# Format: cell-based
# Conditions: HEK 293 T-Rex cells expressing G1 APOL1; read-out: Thallium Assay (IC50)
# Procedure, shortened: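 Readout: Tl+-triggered fluorescence, FLIPR, reflecting potassium flux through APOL1 pores after cells take up an AM-ester thallium indicator. Cells: HEK T-Rex stable clone G1 DC3.25, APOL1 G1 induced by tetracycline, seeded 26000 per well.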
row,IC50 [nM],SMILES
1,250 to 1000,O=C(NC1(CO)CCC1)[C@H]1C[C@@H](c2c(-c3ccc(F)cc3)[nH]c3c(F)cc(F)cc32)C1 [Compound 240]
2,> 1000,C[C@H](O)[C@H](CO)NC(=O)[C@H]1C[C@@H](c2c(-c3ccc(F)cc3)[nH]c3c(F)cc(F)cc32)C1 [Compound 245]
3,< 250,O=C1NC[C@@H](O)[C@@H]1NC(=O)[C@H]1C[C@H](c2c(-c3ccc(F)cc3)[nH]c3c(F)cc(F)cc32)C1 [Compound 229]
4,> 1000,O=C(N[C@H]1C[C@H](O)C1)[C@H]1C[C@@H](c2c(-c3ccc(F)cc3)[nH]c3c(F)cc(F)cc32)C1 [Compound 267]
5,> 1000,O=C([C@H]1C[C@H](c2c(-c3ccc(F)cc3)[nH]c3c(F)cc(F)cc32)C1)N1CCOC(CO)C1 (stereo partly shown) [Compound 152]
6,> 1000,CC(C)C(CO)NC(=O)[C@H]1C[C@@H](c2c(-c3ccc(F)cc3)[nH]c3c(F)cc(F)cc32)C1 (stereo partly shown) [Compound 254]
7,250 to 1000,CC1(C(=O)N[C@H]2CCNC2=O)CC(c2c(-c3ccc(F)cc3)[nH]c3c(F)cc(F)cc23)C1 (mixture of isomers) [Compound 284]
8,> 1000,CC(C)CC(NC(=O)[C@H]1C[C@@H](c2c(-c3ccc(F)cc3)[nH]c3c(F)cc(F)cc32)C1)C(N)=O (stereo partly shown) [Compound 255]
9,> 1000,O=C([C@H]1C[C@H](c2c(-c3ccc(F)cc3)[nH]c3c(F)cc(F)cc32)C1)N1CCOC(CO)C1 (stereo partly shown) [Compound 151]
10,> 1000,CC[C@@H](CO)NC(=O)[C@H]1C[C@@H](c2c(-c3ccc(F)cc3)[nH]c3c(F)cc(F)cc32)C1 [Compound 257]
11,250 to 1000,O=C(NC(CO)(CO)CO)[C@H]1C[C@@H](c2c(-c3ccc(F)cc3)[nH]c3c(F)cc(F)cc32)C1 [Compound 273]
12,> 1000,O=C1NCCC1NC(=O)[C@H]1C[C@@H](c2c(-c3ccc(F)cc3)[nH]c3c(F)cc(F)cc32)C1 (stereo partly shown) [Compound 268]
13,250 to 1000,Cc1ccn(CCNC(=O)[C@H]2C[C@@H](c3c(-c4ccc(F)cc4)[nH]c4c(F)cc(F)cc43)C2)n1 [Compound 263]

row,SMILES,IC50 [nM]
1,O=C(N[C@@H]1CC[C@H](O)C1)[C@H]1C[C@H](c2c(-c3ccc(F)cc3)[nH]c3c(F)cc(F)cc32)C1 [Compound 180],> 1000
2,O=C(N[C@H]1CC[C@H](O)C1)[C@H]1C[C@H](c2c(-c3ccc(F)cc3)[nH]c3c(F)cc(F)cc32)C1 [Compound 187],> 1000

# Same assay, conditions: Table 24, Compounds 287 to 465; read-out: Thallium Assay (IC50)
row,IC50 [nM],SMILES
1,> 1000,O=C(NCC(O)C(F)F)C1CC(Cc2c(-c3ccc(F)cc3)[nH]c3c(F)cc(F)cc23)C1 (stereo not shown) [Compound 301]
2,> 1000,CC(NC(=O)C1CC(Cc2c(-c3ccc(F)cc3)[nH]c3c(F)cc(F)cc23)C1)C1CCOC1 (mixture of isomers) [Compound 345]
3,> 1000,C[C@@H](CO)NC(=O)NC[C@H]1C[C@H](c2c(-c3ccc(F)cc3)[nH]c3c(F)cc(F)cc32)C1 [Compound 414]
4,< 250,O=C(CNC[C@H]1C[C@H](c2c(-c3ccc(F)cc3)[nH]c3c(F)cc(F)cc32)C1)NCO [Compound 448]
5,> 1000,Cc1c(CNC(=O)C2CC(Cc3c(-c4ccc(F)cc4)[nH]c4c(F)cc(F)cc34)C2)cnn1C (stereo not shown) [Compound 333]
6,> 1000,C[C@H](O)CNC(=O)N(C)CC1CC(c2c(-c3ccc(F)cc3)[nH]c3c(F)cc(F)cc23)C1 (stereo partly shown) [Compound 430]
7,> 1000,Cn1cncc1CNC(=O)C1CC(Cc2c(-c3ccc(F)cc3)[nH]c3c(F)cc(F)cc23)C1 (stereo not shown) [Compound 344]
8,> 1000,C[C@H](O)[C@H](CO)NC(=O)O[C@H]1C[C@H](c2c(-c3ccc(F)cc3)[nH]c3c(F)cc(F)cc32)C1 [Compound 366]
9,> 1000,O=C(NCC(O)CO)O[C@H]1C[C@H](c2c(-c3ccc(F)cc3)[nH]c3c(F)cc(F)cc32)C1 (stereo partly shown) [Compound 367]
10,> 1000,C[C@@H](O)CNC(=O)N(C)CC1CC(c2c(-c3ccc(F)cc3)[nH]c3c(F)cc(F)cc23)C1 (stereo partly shown) [Compound 429]
11,> 1000,C[C@H](CO)NC(=O)CC1CC(c2c(-c3ccc(F)cc3)[nH]c3c(F)cc(F)cc23)C1 (stereo partly shown) [Compound 454]
12,> 1000,CN(CC1CC(c2c(-c3ccc(F)cc3)[nH]c3c(F)cc(F)cc23)C1)C(=O)NCCO (stereo not shown) [Compound 431]
13,> 1000,CC(CO)N(C)C(=O)NC[C@H]1C[C@H](c2c(-c3ccc(F)cc3)[nH]c3c(F)cc(F)cc32)C1 (mixture of isomers) [Compound 412]
14,> 1000,O=C(Nc1ccc[nH]c1=O)C1CC(Cc2c(-c3ccc(F)cc3)[nH]c3c(F)cc(F)cc23)C1 (stereo not shown) [Compound 339]
15,> 1000,CN1CCN(C(=O)CNCC2CC(c3c(-c4ccc(F)cc4)[nH]c4c(F)cc(F)cc34)C2)CC1 (stereo not shown) [Compound 444]
16,> 1000,C[C@@H](O)CNC(=O)C1CC(Cc2c(-c3ccc(F)cc3)[nH]c3c(F)cc(F)cc23)C1 (stereo partly shown) [Compound 307]
17,> 1000,CC1CC(NC(=O)NC[C@H]2C[C@H](c3c(-c4ccc(F)cc4)[nH]c4c(F)cc(F)cc43)C2)C(=O)O1 (stereo partly shown) [Compound 395]
18,250 to 1000,"O=C(NCCO)C1CC(Cc2c(-c3ccc(F)cc3)[nH]c3c(F)cc(F)cc23)C1 (stereo not shown) [Compound 299, 3-[[5,7-difluoro-2-(4-fluorophenyl)-1H-indol-3-yl]methyl]-N-(2-hydroxyethyl)cyclobutane-1-carboxamide]"
19,> 1000,C[C@H](CO)N(C)C(=O)NC[C@H]1C[C@H](c2c(-c3ccc(F)cc3)[nH]c3c(F)cc(F)cc32)C1 [Compound 404]
20,> 1000,C[C@H](CO)NC(=O)NC[C@H]1C[C@H](c2c(-c3ccc(F)cc3)[nH]c3c(F)cc(F)cc32)C1 [Compound 409]
21,> 1000,COCC1(CNC(=O)C2CC(Cc3c(-c4ccc(F)cc4)[nH]c4c(F)cc(F)cc34)C2)CC1 (stereo not shown) [Compound 319]
22,250 to 1000,C[C@H](NCC1CC(c2c(-c3ccc(F)cc3)[nH]c3c(F)cc(F)cc23)C1)C(=O)N(C)C (stereo partly shown) [Compound 434]

row,IC50 [nM],SMILES
1,> 1000,CNC(=O)N(C)CC1CC(c2c(-c3ccc(F)cc3)[nH]c3c(F)cc(F)cc23)C1 (stereo not shown) [Compound 428]
2,> 1000,O=C(NCC1(O)CCCC1)C1CC(Cc2c(-c3ccc(F)cc3)[nH]c3c(F)cc(F)cc23)C1 (stereo not shown) [Compound 315]
3,> 1000,CC[C@H](CO)NC(=O)NC[C@H]1C[C@H](c2c(-c3ccc(F)cc3)[nH]c3c(F)cc(F)cc32)C1 [Compound 418]
4,> 1000,CC(O)(CO)CNC(=O)C1CC(Cc2c(-c3ccc(F)cc3)[nH]c3c(F)cc(F)cc23)C1 (stereo not shown) [Compound 324]
5,250 to 1000,O=C(N[C@@H]1CCNC1=O)O[C@H]1C[C@H](c2c(-c3ccc(F)cc3)[nH]c3c(F)cc(F)cc32)C1 [Compound 359]
6,> 1000,O=C(NC[C@H]1CC[C@@H](CO)O1)NC[C@H]1C[C@H](c2c(-c3ccc(F)cc3)[nH]c3c(F)cc(F)cc32)C1 [Compound 422]
7,> 1000,O=C(NC[C@@H](O)C(F)(F)F)NC[C@H]1C[C@H](c2c(-c3ccc(F)cc3)[nH]c3c(F)cc(F)cc32)C1 [Compound 424]
8,> 1000,Cn1cnc(CNC(=O)C2CC(Cc3c(-c4ccc(F)cc4)[nH]c4c(F)cc(F)cc34)C2)c1 (stereo not shown) [Compound 314]
9,> 1000,CC1(NC(=O)C2CC(Cc3c(-c4ccc(F)cc4)[nH]c4c(F)cc(F)cc34)C2)CCNC1=O (stereo not shown) [Compound 308]
10,< 250,"O=C(NC(CO)(CO)CO)O[C@H]1C[C@H](c2c(-c3ccc(F)cc3)[nH]c3c(F)cc(F)cc32)C1 [Compound 349, (1r, 3r)-3-(5,7-difluoro-2-(4-fluorophenyl)-1H-indol-3-yl)cyclobutyl (1,3-dihydroxy-2-(hydroxymethyl)propan-2-yl)carbamate]"
11,> 1000,O=C(CC1CC(c2c(-c3ccc(F)cc3)[nH]c3c(F)cc(F)cc23)C1)NCCO (stereo not shown) [Compound 459]
12,> 1000,"C[C@H](CO)NC(=O)C1CCC(c2c(-c3ccc(F)cc3)[nH]c3c(F)cc(F)cc23)C1 (stereo partly drawn) [Compound 463, 3-[5,7-difluoro-2-(4-fluorophenyl)-1H-indol-3-yl]-N-[(1R)-2-hydroxy-1-methyl-ethyl]cyclopentanecarboxamide]"
13,> 1000,CC(C)(NCC1CC(c2c(-c3ccc(F)cc3)[nH]c3c(F)cc(F)cc23)C1)C(=O)NCC(F)(F)F (stereo not shown) [Compound 442]
14,> 1000,C[C@@H](CO)NC(=O)CC1CC(c2c(-c3ccc(F)cc3)[nH]c3c(F)cc(F)cc23)C1 (stereo partly shown) [Compound 458]
15,> 1000,C[C@@H](O)CNC(=O)N[C@H]1C[C@H](c2c(-c3ccc(F)cc3)[nH]c3c(F)cc(F)cc32)C1 [Compound 296]
16,< 250,"NC(=O)CNC[C@H]1C[C@H](c2c(-c3ccc(F)cc3)[nH]c3c(F)cc(F)cc32)C1 [Compound 445, 2-((((1r,3r)-3-(5,7-difluoro-2-(4-fluorophenyl)-1H-indol-3-yl)cyclobutyl)methyl)amino)acetamide]"
17,> 1000,CC(C)C[C@@H](CO)NC(=O)C1CC(Cc2c(-c3ccc(F)cc3)[nH]c3c(F)cc(F)cc23)C1 (stereo partly shown) [Compound 347]
18,> 1000,O=C(NCc1cn(CC(F)(F)F)cn1)O[C@H]1C[C@H](c2c(-c3ccc(F)cc3)[nH]c3c(F)cc(F)cc32)C1 [Compound 386]
19,> 1000,O=C(NC[C@H]1C[C@H](c2c(-c3ccc(F)cc3)[nH]c3c(F)cc(F)cc32)C1)N[C@H]1CC[C@H]1O [Compound 394]
20,> 1000,O=C(N[C@H]1CCNC1=O)N[C@H]1C[C@H](c2c(-c3ccc(F)cc3)[nH]c3c(F)cc(F)cc32)C1 [Compound 297]
21,> 1000,CC(O)(CO)CNC(=O)O[C@H]1C[C@H](c2c(-c3ccc(F)cc3)[nH]c3c(F)cc(F)cc32)C1 (mixture of isomers) [Compound 378]
